pIC50: −log10 of the molar value.
How the values were obtained:
[1] = molecular target: T1, KRASwt (Homo sapiens, UniProt P01116); experiment: Bio-Biochem-PPI-HTRF Ras-SOS1 interaction assay (KRAS wt); type: biochemical; conditions: 5 nM
T1 construct: made in house; host or cells: E. coli BL21 (DE3)
Method in brief: (§1)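 Inhibition of His-hSOS1 binding to GST-tagged wild-type or G12D K-Ras is read as HTRF ratio (665/620 nm) following incubation of about 10 minutes or longer, and IC50 values are fitted from duplicate six-point titrations.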

[2] = molecular target: T2, KRASG12D (Homo sapiens, UniProt P01116, G12D); experiment: Bio-Biochem-PPI-HTRF Ras-SOS1 interaction assay (KRAS G12D); type: biochemical; conditions: 5 nM
T2 construct: made in house; host or cells: E. coli BL21 (DE3)
T2 sequence (P01116 1-188 isoform P01116-2 G12D): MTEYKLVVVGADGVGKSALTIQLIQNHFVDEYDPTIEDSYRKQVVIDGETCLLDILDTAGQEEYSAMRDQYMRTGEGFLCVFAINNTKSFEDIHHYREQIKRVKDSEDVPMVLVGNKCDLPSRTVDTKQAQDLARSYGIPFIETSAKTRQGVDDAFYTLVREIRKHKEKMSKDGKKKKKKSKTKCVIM
Method in brief: as §1

T1 sequence (P01116 1-188 isoform P01116-2): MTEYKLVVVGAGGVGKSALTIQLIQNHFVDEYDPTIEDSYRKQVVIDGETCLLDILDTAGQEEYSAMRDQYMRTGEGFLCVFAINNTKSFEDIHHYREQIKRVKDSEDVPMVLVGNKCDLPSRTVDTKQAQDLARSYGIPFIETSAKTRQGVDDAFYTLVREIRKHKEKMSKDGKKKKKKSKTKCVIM

Row | Structure (SMILES) | pIC50 [1] | pIC50 [2]
1 | N#Cc1c(N)sc2c(F)ccc(-c3c(Cl)cc4c(N5CCCCC6(CN(C(=O)N7CC(F)(F)C7)C6)C5)nc(OC[C@@]56CCCN5C[C@H](F)C6)nc4c3F)c12 [compound 298, 2-amino-4-(6-chloro-4-(2-(3,3-difluoroazetidine-1-carbonyl)-2,6-diazaspiro[3.6]decan-6-yl)-8-fluoro-2-(((2R,7aS)-2-fluorotetrahydro-1H-pyrrolizin-7a(5H)-yl)methoxy)quinazolin-7-yl)-7-fluorobenzo[b]thiophene-3-carbonitrile] | > 5.30 | > 5.30
2 | N#Cc1c(N)sc2c(F)ccc(-c3c(Cl)cc4c(N5CCCCC6(CN(C(=O)C7CC7C7CC7)C6)C5)nc(OC[C@@]56CCCN5C[C@H](F)C6)nc4c3F)c12 (stereo partly drawn) [compound 261, 4-(4-(2-([1,1′-bi (cyclopropane)]-2-carbonyl)-2,6-diazaspiro[3.6]decan-6-yl)-6-chloro-8-fluoro-2-(((2R,7aS)-2-fluorotetrahydro-1H-pyrrolizin-7a(5H)-yl)methoxy)quinazolin-7-yl)-2-amino-7-fluorobenzo[b] thiophene-3-carbonitrile] | > 5.30 | > 5.30
3 | C[C@H](Oc1nc(N2CCCC3(CN(C(=O)[C@@H]4C[C@H]4F)C3)C2)c2cc(Cl)c(-c3ccc(F)c4sc(N)c(C#N)c34)c(F)c2n1)[C@@H]1CCCN1C [compound 126, 2-amino-4-(6-chloro-8-fluoro-4-(2-((1S,2R)-2-fluorocyclopropane-1-carbonyl)-2,6-diazaspiro[3.5]nonan-6-yl)-2-((S)-1-((S)-1-methylpyrrolidin-2-yl)ethoxy)quinazolin-7-yl)-7-fluorobenzo[b] thiophene-3-carbonitrile] | > 5.30 | > 5.30
4 | N#Cc1c(N)sc2c(F)ccc(-c3c(Cl)cc4c(N5CCCC6(CN(C(=O)[C@@H]7C[C@H]7C#N)C6)C5)nc(OC[C@@]56CCCN5C[C@H](F)C6)nc4c3F)c12 [compound 104, 2-amino-4-(6-chloro-4-(2-((1R,2R)-2-cyanocyclopropane-1-carbonyl)-2,6-diazaspiro[3.5]nonan-6-yl)-8-fluoro-2-(((2R,7aS)-2-fluorotetrahydro-1H-pyrrolizin-7a(5H)-yl)methoxy)quinazolin-7-yl)-7-fluorobenzo[b]thiophene-3-carbonitrile] | > 5.30 | > 5.30
5 | N#Cc1c(N)sc2c(F)ccc(-c3c(Cl)cc4c(N5CCC6(CCN(C(=O)C7CC7(F)F)C6)CC5)nc(OC[C@@]56CCCN5C[C@H](F)C6)nc4c3F)c12 (stereo partly drawn) [compound 349, 2-amino-4-(6-chloro-4-(2-(2,2-difluorocyclopropane-1-carbonyl)-2,8-diazaspiro[4.5]decan-8-yl)-8-fluoro-2-(((2R,7aS)-2-fluorotetrahydro-1H-pyrrolizin-7a(5H)-yl)methoxy)quinazolin-7-yl)-7-fluorobenzo[b]thiophene-3-carbonitrile] | > 5.30 | > 5.30
6 | C#Cc1c(F)ccc2cc(O)cc(-c3ncc4c(N5CCCC6(CN(C(=O)[C@@H]7C[C@H]7C#N)C6)C5)nc(OC[C@@]56CCCN5C[C@H](F)C6)nc4c3F)c12 [compound 164, (1R,2R)-2-(6-(7-(8-ethynyl-7-fluoro-3-hydroxynaphthalen-1-yl)-8-fluoro-2-(((2R,7aS)-2-fluorotetrahydro-1H-pyrrolizin-7a(5H)-yl)methoxy)pyrido [4,3-d]pyrimidin-4-yl)-2,6-diazaspiro[3.5]nonane-2-carbonyl)cyclopropane-1-carbonitrile] | > 5.30 | > 5.30
7 | N#CCC(=O)N1CC2(CCCCN(c3nc(OC[C@@]45CCCN4C[C@H](F)C5)nc4c(F)c(-c5ccc(F)c6sc(N)c(C#N)c56)c(Cl)cc34)C2)C1 [compound 194, 2-amino-4-(6-chloro-4-(2-(2-cyanoacetyl)-2,6-diazaspiro[3.6]decan-6-yl)-8-fluoro-2-(((2R,7aS)-2-fluorotetrahydro-1H-pyrrolizin-7a(5H)-yl)methoxy)quinazolin-7-yl)-7-fluorobenzo[b]thiophene-3-carbonitrile] | > 5.30 | > 5.30
8 | N#Cc1c(N)sc2c(F)ccc(-c3c(Cl)cc4c(N5CCCCC6(CN(C(=O)CC78CC(F)(C7)C8)C6)C5)nc(OC[C@@]56CCCN5C[C@H](F)C6)nc4c3F)c12 [compound 282, 2-amino-4-(6-chloro-8-fluoro-4-(2-(2-(3-fluorobicyclo[1.1.1]pentan-1-yl)acetyl)-2,6-diazaspiro[3.6]decan-6-yl)-2-(((2R,7aS)-2-fluorotetrahydro-1H-pyrrolizin-7a(5H)-yl)methoxy)quinazolin-7-yl)-7-fluorobenzo[b]thiophene-3-carbonitrile] | > 5.30 | > 5.30
9 | CN1CCC[C@H]1COc1nc(N2CCCC3(CN(C(N)=O)C3)C2)c2cc(Cl)c(-c3cccc4sc(N)nc34)c(F)c2n1 [compound 124, 6-(7-(2-aminobenzo[d]thiazol-4-yl)-6-chloro-8-fluoro-2-(((S)-1-methylpyrrolidin-2-yl)methoxy)quinazolin-4-yl)-2,6-diazaspiro[3.5]nonane-2-carboxamide] | > 5.30 | > 5.30
10 | N#Cc1c(N)sc2c(F)ccc(-c3c(Cl)cc4c(N5CCCCC6(CN(C(=O)[C@@H]7CCCN7)C6)C5)nc(OC[C@@]56CCCN5C[C@H](F)C6)nc4c3F)c12 [compound 296, 4-(4-(2-(L-prolyl)-2,6-diazaspiro[3.6]decan-6-yl)-6-chloro-8-fluoro-2-(((2R,7aS)-2-fluorotetrahydro-1H-pyrrolizin-7a(5H)-yl)methoxy)quinazolin-7-yl)-2-amino-7-fluorobenzo[b]thiophene-3-carbonitrile] | > 5.30 | > 5.30

Other lines, results leading:

Row | pIC50 [1] | pIC50 [2] | Structure (SMILES)
11 | > 5.30 | > 5.30 | CC(C)[C@H](N)C(=O)N1CC2(CCCCN(c3nc(OC[C@@]45CCCN4C[C@H](F)C5)nc4c(F)c(-c5ccc(F)c6sc(N)c(C#N)c56)c(Cl)cc34)C2)C1 [compound 221, 4-(4-(2-(L-valyl)-2,6-diazaspiro[3.6]decan-6-yl)-6-chloro-8-fluoro-2-(((2R,7aS)-2-fluorotetrahydro-1H-pyrrolizin-7a(5H)-yl)methoxy)quinazolin-7-yl)-2-amino-7-fluorobenzo[b]thiophene-3-carbonitrile]
12 | > 5.30 | > 5.30 | C[C@@H](O)C(=O)N1CC2(CCCCN(c3nc(OC[C@@]45CCCN4C[C@H](F)C5)nc4c(F)c(-c5ccc(F)c6sc(N)c(C#N)c56)c(Cl)cc34)C2)C1 [compound 243, 2-amino-4-(6-chloro-8-fluoro-2-(((2R,7aS)-2-fluorotetrahydro-1H-pyrrolizin-7a(5H)-yl)methoxy)-4-(2-((R)-2-hydroxypropanoyl)-2,6-diazaspiro[3.6]decan-6-yl)quinazolin-7-yl)-7-fluorobenzo[b] thiophene-3-carbonitrile]
13 | > 5.30 | > 5.30 | CC1(C(=O)N2CC3(CCCCN(c4nc(OC[C@@]56CCCN5C[C@H](F)C6)nc5c(F)c(-c6ccc(F)c7sc(N)c(C#N)c67)c(Cl)cc45)C3)C2)CC1(F)F (stereo partly drawn) [compound 277, 2-amino-4-(6-chloro-4-(2-(2,2-difluoro-1-methylcyclopropane-1-carbonyl)-2,6-diazaspiro[3.6]decan-6-yl)-8-fluoro-2-(((2R,7aS)-2-fluorotetrahydro-1H-pyrrolizin-7a(5H)-yl)methoxy)quinazolin-7-yl)-7-fluorobenzo[b]thiophene-3-carbonitrile]
14 | > 5.30 | > 5.30 | N#Cc1c(N)sc2c(F)ccc(-c3c(Cl)cc4c(N5CCCCC6(CN(C(=O)/C=C/C(F)(F)F)C6)C5)nc(OC[C@@]56CCCN5C[C@H](F)C6)nc4c3F)c12 [compound 207, 2-amino-4-(6-chloro-8-fluoro-2-(((2R,7aS)-2-fluorotetrahydro-1H-pyrrolizin-7a(5H)-yl)methoxy)-4-(2-((E)-4,4,4-trifluorobut-2-enoyl)-2,6-diazaspiro [3.6]decan-6-yl)quinazolin-7-yl)-7-fluorobenzo[b]thiophene-3-carbonitrile]
15 | > 5.30 | > 5.30 | N#Cc1c(N)sc2c(F)ccc(-c3c(Cl)cc4c(N5CCCC6(CN(C(=O)C(F)Cl)C6)C5)nc(OC[C@@]56CCCN5C[C@H](F)C6)nc4c3F)c12 (stereo partly drawn) [compound 184, 2-amino-4-(6-chloro-4-(2-(2-chloro-2-fluoroacetyl)-2,6-diazaspiro[3.5]nonan-6-yl)-8-fluoro-2-(((2R,7aS)-2-fluorotetrahydro-1H-pyrrolizin-7a(5H)-yl)methoxy)quinazolin-7-yl)-7-fluorobenzo[b]thiophene-3-carbonitrile]
16 | > 5.30 | > 5.30 | N#Cc1c(N)sc2c(F)ccc(-c3c(Cl)cc4c(N5CCCC6(CN(C(=O)N7CC(C#N)C7)C6)C5)nc(OC[C@@]56CCCN5C[C@H](F)C6)nc4c3F)c12 [compound 308, 1-(6-(7-(2-amino-3-cyano-7-fluorobenzo[b]thiophen-4-yl)-6-chloro-8-fluoro-2-(((2R,7aS)-2-fluorotetrahydro-1H-pyrrolizin-7a(5H)-yl)methoxy)quinazolin-4-yl)-2,6-diazaspiro[3.5]nonane-2-carbonyl)azetidine-3-carbonitrile]
17 | > 5.30 | > 5.30 | N#Cc1c(N)sc2c(F)ccc(-c3c(Cl)cc4c(N5CC(O)CCC6(CN(C(=O)[C@@H]7CC7(F)F)C6)C5)nc(OC[C@@]56CCCN5C[C@H](F)C6)nc4c3F)c12 (stereo partly drawn) [compound 275, 2-amino-4-(6-chloro-4-(2-((S)-2,2-difluorocyclopropane-1-carbonyl)-8-hydroxy-2,6-diazaspiro[3.6]decan-6-yl)-8-fluoro-2-(((2R,7aS)-2-fluorotetrahydro-1H-pyrrolizin-7a(5H)-yl)methoxy)quinazolin-7-yl)-7-fluorobenzo[b]thiophene-3-carbonitrile]

From patent US20240109918A1, “HETEROCYCLIC COMPOUNDS AND USES THEREOF” (Kumquat Biosciences Inc., priority 2022, published 2024)
